Where two headings read alike, the source gives them in different places. Non-standard residues stand in square brackets, D forms with d. Residues, ends and D or L forms follow the SMILES beside them. 1Nal = N[C@@H](Cc1cccc2ccccc12)C(=O)O; 2Nal = N[C@@H](Cc1ccc2ccccc2c1)C(=O)O; β3hI = CC[C@H](C)[C@H](N)CC(=O)O; hSer = N[C@@H](CCO)C(=O)O; Nle = CCCC[C@H](N)C(=O)O; Aib = CC(C)(N)C(=O)O; βAla = NCCC(=O)O
Tests used:
human PTH-1 receptor = target: T1, human PTH-1 receptor (Homo sapiens, UniProt Q03431); assay: Reporter gene assay (CRE-luciferase) for agonist activity in transiently transfected HEK-293 cells; format: cell-based; details: for hPTHR-2/hPTHR-1: selectivity for hPTH-1 receptor over hPTH-2 receptor
T1 construct: expressed in transfected cells; host or cells: HEK-293
T1 sequence (Q03431 27-593): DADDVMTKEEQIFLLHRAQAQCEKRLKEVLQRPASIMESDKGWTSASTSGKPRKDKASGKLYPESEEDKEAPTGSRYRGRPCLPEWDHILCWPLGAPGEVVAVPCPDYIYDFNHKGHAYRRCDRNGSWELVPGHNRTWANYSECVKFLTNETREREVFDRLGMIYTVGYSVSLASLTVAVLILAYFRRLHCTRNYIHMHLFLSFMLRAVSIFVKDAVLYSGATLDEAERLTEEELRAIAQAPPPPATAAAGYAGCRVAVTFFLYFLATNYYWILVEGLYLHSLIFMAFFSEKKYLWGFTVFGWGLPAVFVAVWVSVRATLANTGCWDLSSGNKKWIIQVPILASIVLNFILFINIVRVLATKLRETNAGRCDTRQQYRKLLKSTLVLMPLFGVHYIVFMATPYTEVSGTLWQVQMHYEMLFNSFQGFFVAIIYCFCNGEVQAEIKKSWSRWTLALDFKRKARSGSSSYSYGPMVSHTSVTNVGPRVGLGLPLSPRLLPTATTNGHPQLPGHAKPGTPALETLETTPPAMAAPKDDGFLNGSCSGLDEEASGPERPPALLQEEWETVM
Procedure, shortened: (§1)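 HEK-293 cells transiently transfected with SV40-driven human PTH-1 receptor and CRE-luciferase reporter, exposed to serial compound dilutions for 4-5 h, then lysed for luciferase readout; efficacy and EC50 by non-linear regression, PTH (1-34) as internal control, n≥3. Selectivity measured in analogous human PTH-2 receptor luciferase reporter assays.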

human PTH-2 receptor = target: T2, human PTH-2 receptor (Homo sapiens, UniProt P49190); assay: Luciferase-based transcriptional reporter gene assay for selectivity; format: cell-based
T2 construct: expressed in transfected cells
T2 sequence (P49190 25-550): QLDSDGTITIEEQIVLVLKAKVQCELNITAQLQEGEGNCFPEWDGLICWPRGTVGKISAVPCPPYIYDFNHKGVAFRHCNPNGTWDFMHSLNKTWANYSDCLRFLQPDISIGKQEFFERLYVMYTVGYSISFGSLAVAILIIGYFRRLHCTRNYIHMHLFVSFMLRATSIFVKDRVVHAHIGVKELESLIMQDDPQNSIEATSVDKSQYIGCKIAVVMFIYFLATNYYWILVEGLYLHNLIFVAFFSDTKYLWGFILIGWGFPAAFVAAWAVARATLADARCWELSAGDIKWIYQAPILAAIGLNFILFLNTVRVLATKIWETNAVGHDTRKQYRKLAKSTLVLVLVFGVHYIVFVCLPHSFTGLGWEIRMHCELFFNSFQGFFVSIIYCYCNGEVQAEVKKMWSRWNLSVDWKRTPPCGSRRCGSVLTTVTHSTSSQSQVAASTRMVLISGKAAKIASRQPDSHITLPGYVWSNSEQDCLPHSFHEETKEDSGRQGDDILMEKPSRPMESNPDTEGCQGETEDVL
Procedure, shortened: as §1

CCCC[C@H](NC(=O)[C@H](CC(C)C)NC(=O)[C@H](CCC(N)=O)NC(=O)[C@@H](NC(=O)[C@H](CCC(=O)O)NC(=O)[C@H](CO)NC(=O)[C@@H](NC(=O)[C@@H](N)CO)C(C)C)[C@@H](C)CC)C(=O)N[C@@H](Cc1c[nH]cn1)C(=O)N[C@@H](CC(N)=O)C(=O)N[C@@H](CC(C)C)C(=O)NCC(=O)N[C@@H](CCCCN)C(=O)N[C@@H](Cc1c[nH]cn1)C(=O)N[C@@H](CC(C)C)C(=O)N[C@@H](CC(N)=O)C(=O)N[C@@H](CO)C(=O)N[C@H](CC(=O)N[C@@H](CCC(=O)O)C(=O)N[C@@H](CCCNC(=N)N)C(=O)N[C@H](C(=O)N[C@@H](CCC(=O)O)C(=O)N[C@@H](Cc1cccc2ccccc12)C(=O)N[C@@H](CC(C)C)C(=O)N[C@@H](CCCNC(=N)N)C(=O)N[C@@H](CCCCN)C(=O)N[C@@H](CC(C)C)C(=O)N[C@@H](CC(C)C)C(=O)N[C@@H](CCC(N)=O)C(=O)N[C@@H](CCCNC(=N)N)C(=O)N[C@H](C(=O)N[C@@H](Cc1c[nH]cn1)C(=O)N[C@@H](CC(N)=O)C(=O)N[C@@H](Cc1ccccc1)C(N)=O)C(C)C)C(C)C)[C@@H](C)CC [SEQ ID NO: 35, [Nle^8, β-hIle^18,1-Nal^23, Leu^27, Arg^30] hPTH (1-34)-NH2] (H-SVSEIQL[Nle]HNLGKHLNS[β3hI]ERVE[1Nal]LRKLLQRVHNF-NH2; N-terminus assumed)
EC50 (human PTH-1 receptor): 0.18 nM | hPTHR-2/hPTHR-1 (human PTH-1 receptor; Table 3, ratio of EC50 values): 40 | EC50 (human PTH-2 receptor): 7 nM

CC[C@H](C)[C@H](NC(=O)[C@H](CCC(=O)O)NC(=O)[C@H](CO)NC(=O)[C@@H](NC(=O)[C@@H](N)CO)C(C)C)C(=O)N[C@@H](CCC(N)=O)C(=O)N[C@@H](CC(C)C)C(=O)N[C@@H](CCOC)C(=O)N[C@@H](Cc1c[nH]cn1)C(=O)N[C@@H](CC(N)=O)C(=O)N[C@@H](CC(C)C)C(=O)NCC(=O)N[C@@H](CCCCN)C(=O)N[C@@H](Cc1c[nH]cn1)C(=O)N[C@@H](CC(C)C)C(=O)N[C@@H](CC(N)=O)C(=O)NCCC(=O)N[C@@H](CCOC)C(=O)N[C@@H](CCC(=O)O)C(=O)N[C@@H](CCCNC(=N)N)C(=O)N[C@H](C(=O)N[C@@H](CCC(=O)O)C(=O)N[C@@H](Cc1cccc2ccccc12)C(=O)N[C@@H](CC(C)C)C(=O)N[C@@H](CCCNC(=N)N)C(=O)N[C@@H](CCCCN)C(=O)N[C@@H](CC(C)C)C(=O)N[C@@H](CC(C)C)C(=O)N[C@@H](CCC(N)=O)C(=O)N[C@@H](CC(=O)O)C(=O)N[C@H](C(=O)N[C@@H](Cc1c[nH]cn1)C(=O)N[C@@H](CC(N)=O)C(=O)N[C@@H](Cc1ccccc1)C(N)=O)C(C)C)C(C)C [SEQ ID NO: 17, [hSer(OMe)^8,18, β-Ala^17,1-Nal^23, Leu^27] hPTH(1-34)-NH2] (H-SVSEIQL[hSer](Me)HNLGKHLN[βAla][hSer](Me)ERVE[1Nal]LRKLLQDVHNF-NH2)
hPTHR-2/hPTHR-1 (human PTH-1 receptor; Table 3, ratio of EC50 values): >300 | EC50 (human PTH-2 receptor): > 270 nM

CCCC[C@H](NC(=O)CCNC(=O)[C@H](CC(N)=O)NC(=O)[C@H](CC(C)C)NC(=O)[C@H](Cc1c[nH]cn1)NC(=O)[C@H](CCCCN)NC(=O)CNC(=O)[C@H](CC(C)C)NC(=O)[C@H](CC(N)=O)NC(=O)[C@H](Cc1c[nH]cn1)NC(=O)[C@H](CCCC)NC(=O)[C@H](CC(C)C)NC(=O)[C@H](CCC(N)=O)NC(=O)[C@@H](NC(=O)[C@H](CCC(=O)O)NC(=O)[C@H](CO)NC(=O)[C@@H](NC(=O)C(C)(C)N)C(C)C)[C@@H](C)CC)C(=O)N[C@@H](CCC(=O)O)C(=O)N[C@@H](CCCNC(=N)N)C(=O)N[C@H](C(=O)N[C@@H](CCC(=O)O)C(=O)N[C@@H](Cc1ccc2ccccc2c1)C(=O)N[C@@H](CC(C)C)C(=O)N[C@@H](CCCNC(=N)N)C(=O)N[C@@H](CCCCN)C(=O)N[C@@H](CCCCN)C(=O)N[C@@H](CC(C)C)C(=O)N[C@@H](CCC(N)=O)C(=O)N[C@@H](CC(=O)O)C(=O)N[C@H](C(=O)N[C@@H](Cc1c[nH]cn1)C(=O)N[C@@H](CC(N)=O)C(=O)N[C@@H](Cc1ccccc1)C(N)=O)C(C)C)C(C)C [SEQ ID NO: 13, [Aib^1, Nle^8,18, β-Ala^17,2-Nal^23] hPTH (1-34)-NH2] (H-[Aib]VSEIQL[Nle]HNLGKHLN[βAla][Nle]ERVE[2Nal]LRKKLQDVHNF-NH2; N-terminus assumed)
EC50 (human PTH-1 receptor; Table 3, HEK-293 cells, CRE-luciferase, 4-5 hours exposure, read-out: hPTHR-1 EC50): 0.22 nM | hPTHR-2/hPTHR-1 (human PTH-1 receptor; Table 3, ratio of EC50 values): 213 | EC50 (human PTH-2 receptor; Table 3, luciferase reporter gene assay, read-out: hPTHR-2 EC50): 46 nM

CCCC[C@H](NC(=O)[C@H](CC(C)C)NC(=O)[C@H](CCC(N)=O)NC(=O)[C@@H](NC(=O)[C@H](CCC(=O)O)NC(=O)[C@H](CO)NC(=O)[C@@H](NC(=O)[C@@H](N)CO)C(C)C)[C@@H](C)CC)C(=O)N[C@@H](Cc1c[nH]cn1)C(=O)N[C@@H](CC(N)=O)C(=O)N[C@@H](CC(C)C)C(=O)NCC(=O)N[C@@H](CCCCN)C(=O)N[C@@H](Cc1c[nH]cn1)C(=O)N[C@@H](CC(C)C)C(=O)N[C@@H](CC(N)=O)C(=O)N[C@@H](CO)C(=O)N[C@H](CC(=O)N[C@@H](CCC(=O)O)C(=O)N[C@@H](CCCNC(=N)N)C(=O)N[C@H](C(=O)N[C@@H](CCC(=O)O)C(=O)N[C@@H](Cc1cccc2ccccc12)C(=O)N[C@@H](CC(C)C)C(=O)N[C@@H](CCCNC(=N)N)C(=O)N[C@@H](CCCCN)C(=O)N[C@@H](CC(C)C)C(=O)N[C@@H](CC(C)C)C(=O)N[C@@H](CCC(N)=O)C(=O)N[C@@H](Cc1c[nH]cn1)C(=O)N[C@H](C(=O)N[C@@H](Cc1c[nH]cn1)C(=O)N[C@@H](CC(N)=O)C(=O)N[C@@H](Cc1ccccc1)C(N)=O)C(C)C)C(C)C)[C@@H](C)CC [SEQ ID NO: 25, [Nle^8, β-hIle^18,1-Nal^23, Leu^27, His^30] hPTH (1-34)-NH2] (H-SVSEIQL[Nle]HNLGKHLNS[β3hI]ERVE[1Nal]LRKLLQHVHNF-NH2)
EC50 (human PTH-1 receptor): 0.18 nM | hPTHR-2/hPTHR-1 (human PTH-1 receptor; Table 3, ratio of EC50 values): 72 | EC50 (human PTH-2 receptor): 13 nM

CCCC[C@H](NC(=O)[C@H](CC(C)C)NC(=O)[C@H](CCC(N)=O)NC(=O)[C@@H](NC(=O)[C@H](CCC(=O)O)NC(=O)[C@H](CO)NC(=O)[C@@H](NC(=O)[C@@H](N)CO)C(C)C)[C@@H](C)CC)C(=O)N[C@@H](Cc1c[nH]cn1)C(=O)N[C@@H](CC(N)=O)C(=O)N[C@@H](CC(C)C)C(=O)NC(C)(C)C(=O)N[C@@H](CCCCN)C(=O)N[C@@H](Cc1c[nH]cn1)C(=O)N[C@@H](CC(C)C)C(=O)N[C@@H](CC(N)=O)C(=O)N[C@@H](CO)C(=O)N[C@H](CC(=O)N[C@@H](CCC(=O)O)C(=O)N[C@@H](CCCNC(=N)N)C(=O)N[C@H](C(=O)N[C@@H](CCC(=O)O)C(=O)N[C@@H](Cc1cccc2ccccc12)C(=O)N[C@@H](CC(C)C)C(=O)N[C@@H](CCCNC(=N)N)C(=O)N[C@@H](CCCCN)C(=O)N[C@@H](CC(C)C)C(=O)N[C@@H](CC(C)C)C(=O)N[C@@H](CCC(N)=O)C(=O)N[C@@H](CC(=O)O)C(=O)N[C@H](C(=O)N[C@@H](Cc1c[nH]cn1)C(=O)N[C@@H](CC(N)=O)C(=O)N[C@@H](Cc1ccccc1)C(N)=O)C(C)C)C(C)C)[C@@H](C)CC [SEQ ID NO: 32, [Nle^8, Aib^12, β-hIle^18,1-Nal^23, Leu^27] hPTH (1-34)-NH2] (H-SVSEIQL[Nle]HNL[Aib]KHLNS[β3hI]ERVE[1Nal]LRKLLQDVHNF-NH2)
hPTHR-2/hPTHR-1 (human PTH-1 receptor; Table 3, ratio of EC50 values): 55 | EC50 (human PTH-2 receptor): 13 nM

CCCC[C@H](NC(=O)[C@H](CC(C)C)NC(=O)[C@H](CCC(N)=O)NC(=O)[C@@H](NC(=O)[C@H](CCC(=O)O)NC(=O)[C@H](CO)NC(=O)[C@@H](NC(=O)C(C)(C)N)C(C)C)[C@@H](C)CC)C(=O)N[C@@H](Cc1c[nH]cn1)C(=O)N[C@@H](CC(N)=O)C(=O)N[C@@H](CC(C)C)C(=O)NCC(=O)N[C@@H](CCCCN)C(=O)N[C@@H](Cc1c[nH]cn1)C(=O)N[C@@H](CC(C)C)C(=O)N[C@@H](CC(N)=O)C(=O)N[C@@H](CO)C(=O)N[C@H](CC(=O)N[C@@H](CCC(=O)O)C(=O)N[C@@H](CCCNC(=N)N)C(=O)N[C@H](C(=O)N[C@@H](CCC(=O)O)C(=O)N[C@@H](Cc1cccc2ccccc12)C(=O)N[C@@H](CC(C)C)C(=O)N[C@@H](CCCNC(=N)N)C(=O)N[C@@H](CCCCN)C(=O)N[C@@H](CC(C)C)C(=O)N[C@@H](CC(C)C)C(=O)N[C@@H](CCC(N)=O)C(=O)N[C@@H](CC(=O)O)C(=O)N[C@H](C(N)=O)C(C)C)C(C)C)[C@@H](C)CC [SEQ ID NO: 5, [Aib^1, Nle^8, β-hIle^18,1-Nal^23, Leu^27] hPTH (1-31)-NH2] (H-[Aib]VSEIQL[Nle]HNLGKHLNS[β3hI]ERVE[1Nal]LRKLLQDV-NH2)
EC50 (human PTH-1 receptor): 0.05 nM | hPTHR-2/hPTHR-1 (human PTH-1 receptor; Table 3, ratio of EC50 values): 387 | Selectivity hPTHR-2/hPTHR-1 (human PTH-1 receptor; Table 4 comparison data, ratio of EC50 values): 387 | EC50 (human PTH-2 receptor): 18 nM
